Results as given in patent US20100267561A1, “HERBICIDAL PYRIDAZINONE DERIVATIVES” (priority 2007, published 2010).

Assays:
Assay type in all cases: in vivo
[1] = system: canarygrass (Phalaris minor); assay: Test A pre-/postemergence plant response
Summary of the method: (§1)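 Seeds in loam soil/sand blend treated preemergence by directed soil spray, with simultaneous postemergence spray on 2–10 cm plants at one- to two-leaf stage; compounds in non-phytotoxic solvent with surfactant. Injury visually rated versus untreated controls after about 10 days in greenhouse, 0 (no effect) to 100 (complete control).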

[2] = system: blackgrass (Alopecurus myosuroides); assay: Test A pre-/postemergence plant response
Summary of the method: as §1

[3] = system: tropical (T.) spiderwort (Commelina benghalensis); assay: Test E pre-/postemergence plant response; settings: scale 0 to 100
Summary of the method: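 Steps: sow seeds; apply compound preemergence in a non-phytotoxic solvent/surfactant formulation; in parallel, spray the same formulation postemergence on 1- to 4-leaf plants (2–18 cm); hold 14–21 days in a greenhouse; rate visually vs controls, 0 = no effect, 100 = complete control.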

[4] = Postemergence, 31 g ai/ha, 0 to 100 scale (0 no effect, 100 complete control)
[5] = Postemergence, 125 g ai/ha, 0 to 100 scale, 0 no effect, 100 complete control
[6] = Preemergence, 31 g ai/ha, 0 to 100 scale, 0 is no effect, 100 is complete control
[7] = Preemergence, 125 g ai/ha, 0 to 100 scale (0 no effect, 100 complete control)

SMILES | Plant response rating, Canarygrass [1, 4] | Plant response rating, Canarygrass [1, 5] | Plant response rating, Canarygrass [1, 6] | Plant response rating, Canarygrass [1, 7] | Plant response rating, Blackgrass [2, 4] | Plant response rating, Blackgrass [2, 5] | Plant response rating, Blackgrass [2, 6] | Plant response rating, Blackgrass [2, 7] | Plant response rating, Spiderwort, T. ([3]; 16 g ai/ha, Preemergence) | Plant response rating, Spiderwort, T. ([3]; 31 g ai/ha, Preemergence) | Plant response rating, Spiderwort, T. ([3]; 62 g ai/ha, Preemergence) | Plant response rating, Spiderwort, T. ([3]; Postemergence, 8 g ai/ha) | Plant response rating, Spiderwort, T. ([3]; Postemergence, 16 g ai/ha) | Plant response rating, Spiderwort, T. ([3]; Postemergence, 62 g ai/ha) | Plant response rating, Spiderwort, T. ([3]; Postemergence, 31 g ai/ha)
Cc1cc(-c2ccc(Br)cc2)nn1-c1c(OC(=O)C2CC2)cnn(C(=O)C2CC2)c1=O [Compound 80, 5-[3-(4-bromophenyl)-5-methyl-1H-pyrazol-1-yl]-1-(cyclopropylcarbonyl)-1,6-dihydro-6-oxo-4-pyridazinyl cyclopropanecarboxylate] | 40 | 100 | 60 | 100 | 30 | 100 | 70 | 100 |  |  |  |  |  |  | 
COC(=O)Oc1cnn(C)c(=O)c1-n1nc(-c2ccc(Cl)cc2)cc1C [Compound 33] |  |  |  |  |  |  |  |  | 0 | 0 | 0 | 0 | 0 | 0 | 
Cc1cc(-c2ccc(Cl)cc2)nn1-c1c(OC(=S)N(C)C)cnn(C)c1=O [Compound 69] | 0 | 80 |  | 80 | 10 | 60 | 20 | 40 |  |  |  |  |  |  | 
Cc1cc(-c2ccc(Br)cc2)nn1-c1c(O)cn[nH]c1=O [Compound 78, 4-[3-(4-bromophenyl)-5-methyl-1H-pyrazol-1-yl]-5-hydroxy-3(2H)-pyridazinone] | 40 | 70 | 0 | 100 | 90 | 100 | 0 | 100 |  |  |  |  |  |  | 
Cc1cc(-c2ccc(Cl)cc2)nn1-c1c(OS(C)(=O)=O)cnn(C)c1=O [Compound 36] |  |  |  |  |  |  |  |  | 0 | 0 | 0 | 0 | 0 | 0 | 0
CCc1cc(-c2ccc(Cl)cc2)nn1-c1c(OS(C)(=O)=O)cnn(C)c1=O [Compound 39] |  |  |  |  |  |  |  |  | 0 | 0 | 0 | 0 | 0 | 0 | 0
Cc1nn(C)c(=O)c(-n2nc(-c3ccc(C(F)(F)F)cc3)cc2C)c1O [Compound 75, 5-hydroxy-2,6-dimethyl-4-[5-methyl-3-[4-(trifluoromethyl)phenyl]-1H-pyrazol-1-yl]-3(2H)-pyridazinone] | 10 | 80 | 10 | 80 | 40 | 90 | 40 | 80 |  |  |  |  |  |  | 
COCc1cc(-c2ccc(Br)cc2)nn1-c1c(O)cnn(C)c1=O [Compound 68] | 0 | 40 | 0 | 20 | 0 | 80 | 0 | 50 |  |  |  |  |  |  | 
Cc1nn(C)c(=O)c(-n2nc(-c3ccc(Br)cc3)cc2C)c1O [Compound 81] | 60 | 100 | 50 | 90 | 100 | 100 | 70 | 100 |  |  |  |  |  |  | 
